{"source": "patent US20230279482A1", "about": "“COMPOSITIONS, METHODS AND USES FOR QUANTIFYING TRANSCRIPTION AND BIOSENSING OF SMALL MOLECULES USING A NOVEL TYPE VI CRISPR-CAS ASSAY” (THE REGENTS OF THE UNIVERSITY OF COLORADO, A BODY CORPORATE, priority 2020, published 2023)", "key": {"[1]": {"system": "transcription and Cas13 reaction", "experiment": "Effect of agents on fluorescent signal of one-batch and two-batch assays", "type": "biochemical", "conditions": "FIGS. 6D-6F", "protocol": "In another exemplary method, two-batch methods included, 30 μL in vitro transcription reactions carried out as described above but without addition of Cas13a, crRNA, labeled RNA oligos, RNase inhibitor. Then, the reaction was washed three times with 500 μL ddH2O using an centrifugal filter (0.5 ml, 10 kDa cutoff). After concentrating the solution to approximately 20 μL, aliquots of 6 μL were taken and added to a 24 μL of a SHERLOCK reaction (described below).\n(§1) The SELEX method (previously described) has been used to select the P1 aptamer that binds to the neurotransmitter serotonin (i.e. 5-hydroxytryptamine) and this aptamer was incorporated into the expression platform pbuE′ to generate a riboswitch for serotonin."}, "[2]": {"system": "guanine riboswitch xpt/pbuE*6U", "experiment": "SPRINT compound screen on guanine riboswitch", "type": "biochemical", "conditions": "10 μM and 1 mM for most compounds, solvent signal subtracted, FIG. 9A", "protocol": "Briefly, the transcriptional response of the guanine riboswitch xpt/pbuE*6U to 30 different compounds was measured at two different concentrations each (FIG. 9A and FIG. 10). The concentrations used were 10 μM and 1 mM for most compounds. The signal that was obtained from control experiments with the solvents DMSO or water was subtracted from all values."}, "[3]": {"system": "SPRINT assay without riboswitch (constitutively transcribed Cas13a target)", "experiment": "SPRINT control screen with constitutive promoter template (PAINS identification)", "conditions": "constitutive promoter template, FIG. 9B", "procedure": "The master mix was gently mixed by pipetting up and down and incubated at 37° C. for 15 minutes to allow binding of crRNA to Cas13a protein and the microwell plate was prepared by adding 3 μL of 10× ligand to the wells. The reaction was initiated by addition of rNTPs to the master mix to a concentration of 20 μM and then 27 μL of the complete master mix were added to each well and pipetted up and down to mix with the ligand in the wells. The plate was covered with an optical adhesive film to prevent evaporation of the sample while taking fluorescence measurements in a plate reader that was preheated to 37° C."}, "[4]": {"system": "flavin mononucleotide (FMN) riboswitch ribD/pbuE*7U", "experiment": "SPRINT assay with FMN riboswitch", "type": "biochemical, B. subtilis", "conditions": "10 mM MgCl2, FIG. 4B", "protocol": "(§2) SPRINT reactions. Pentauridine RNA oligonucleotides were labeled with carboxyfluorescein (FAM) or TEX 615 at the 5′-end and with Iowa Black FQ at the 3′-end. Fluorescence measurements were taken at wavelengths 490/525 nm (excitation/emission) when the FAM fluorophore was used. In reactions with flavin-containing ligands, TEX-labeled RNA oligos were used at the wavelengths 576/615 (excitation/emission). Fluorescence measurements were taken every 5 minutes.\n(§3) For exemplary SPRINT assays, a master mix was first prepared and then mixed with the remaining reaction reagent components to yield a final reaction volume of 30 μL; fluorescent readings of the entire reaction volume were performed in Corning 384 Flat Bottom Black Polystyrol plates. This master mix (SPRINT buffer, 10×), for assays contemplated herein can include, but is not limited to: 700 mM Tris-HCl, pH 8.0, 700 mM NaCl, 1 mM EDTA, 140 mM β-mercaptoethanol, and 25 mM MgCl2. Aliquots of an exemplary 10× SPRINT buffer were stored at −20° C. and not allowed to undergo more than 10 freeze-thaw cycles.\nInitially, the observed ligand-dependent induction of the FMN riboswitch was very low. To improve this, the magnesium concentration in the SPRINT reaction was increased. […] Therefore, SPRINT reactions with the ribD/pbuE*7U riboswitch were conducted at 10 mM MgCl2 in these exemplary studies."}, "[5]": {"target": "T1, purine nucleoside phosphorylase (hPNP) (Homo sapiens, UniProt P00491)", "T1 sequence (P00491 1-289)": "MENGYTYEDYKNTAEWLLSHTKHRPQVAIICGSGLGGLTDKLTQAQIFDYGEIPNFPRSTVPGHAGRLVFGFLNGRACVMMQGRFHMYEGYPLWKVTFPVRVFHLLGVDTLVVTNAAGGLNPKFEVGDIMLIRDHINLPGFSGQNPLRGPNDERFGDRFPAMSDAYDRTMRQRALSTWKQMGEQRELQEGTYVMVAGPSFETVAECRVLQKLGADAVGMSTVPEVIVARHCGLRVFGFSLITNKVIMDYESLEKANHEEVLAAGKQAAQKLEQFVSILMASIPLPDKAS", "experiment": "Enzyme-coupled SPRINT assay (inosine to hypoxanthine, guanine riboswitch xpt/pbuE*6U)", "type": "biochemical", "text": "As part of the human purine metabolism, the enzyme purine nucleoside phosphorylase (hPNP) can catalyze the phosphorylation of the ribose moiety of various purines and thereby remove the sugar from the nucleobase. The conversion of deoxyguanosine to deoxyguanine by hPNP can be inhibited with nucleoside analogs such as Immucillin-H (forodesine) which leads to accumulation of deoxyguanosine and consequent apoptosis in activated T-cells. Therefore, hPNP is an important drug target for the treatment for example, of leukemia, arthritis, multiple sclerosis and transplant rejection.\nIn these systems, the conversion of inosine to hypoxanthine via hPNP was coupled to the SPRINT reaction in a one-batch buffer system using the guanine riboswitch xpt/pbuE*6U (FIG. 9D)."}, "[6]": {"system": "metE riboswitch", "experiment": "SPRINT assay with native metE OFF riboswitch (with heparin, single turnover)", "type": "biochemical, B. subtilis", "conditions": "OFF switch, heparin added, FIG. 7B; read-out: T50 value (reduction of transcriptional rate)", "protocol": "For amplification of the native metE riboswitch from the genome, the following protocol was used: Colony PCR was performed, using the oligos “metE_fwd” (SEQ ID NO: 13) and “metE_rev” (SEQ ID NO: 14) at Tm=64° C. with Q5 DNA polymerase. The constant 5′ and 3′ parts of the SPRINT constructs were also amplified via PCR reactions, using any plasmid with a complete SPRINT sequence as template. The 5′ constant part was amplified with oligos “InsulatorOligo_fwd” (SEQ ID NO:1) and “e.coliProm_rev” (SEQ ID NO: 8). The 3′ constant part was amplified with oligos “RiboswitchBB_fwd” (SEQ ID NO: 7) and “ssDNA1_rev” (SEQ ID NO: 2). […] The PCR product was purified, quantified and used for a SPRINT reaction.\nIn another exemplary method, certain riboswitches described herein were re-engineered for certain properties such as wide dynamic range and a ligand-induced “ON”. […] Initially, measurements at intermediate concentrations of SAM were difficult to quantify because the high rate of transcription from the B. subtilis metE OFF-switch required very high concentrations of SAM to repress the signal (FIG. 8). […]"}, "[7]": {"system": "S-adenosylmethionine (SAM)-responsive riboswitch yitJ/pbuE*6U", "experiment": "SPRINT assay with SAM riboswitch", "type": "biochemical", "conditions": "FIG. 4A", "protocol": "as §2, §3\nIn another exemplary method, to test the versatility of SPRINT, small-molecule dependent transcriptional regulation of various riboswitches was examined. […]"}, "[8]": {"system": "adenine riboswitch pbuE/pbuE‡", "experiment": "SPRINT assay with adenine riboswitch", "type": "biochemical", "conditions": "FIG. 3D", "protocol": "as §2\nas §3, with “Aliquots of an exemplary 10× SPRINT buffer were stored at −20° C. and not allowed to undergo more than 10 freeze-thaw cycles.” left out\nThe transcriptional response of the well-characterized guanine riboswitch xpt/pbuE*6U and the adenine-responsive riboswitch pbuE/pbuE‡ to their respective ligand was measured by SPRINT and the radiolabeling method. The radiolabeling method used ^32P-labeled ATP for single turnover transcription assays, subsequent separation of the transcripts on an acrylamide gel, exposure to a phospho screen and quantification of the band intensities. […]"}, "[9]": {"system": "FMN riboswitch ribB", "conditions": "E. coli ribB; cited from earlier work"}, "[10]": {"system": "FMN riboswitch", "conditions": "cited from earlier work"}, "[11]": {"system": "serotonin riboswitch (P1 aptamer in expression platform pbuE′)", "experiment": "SPRINT assay with synthetic serotonin riboswitch", "type": "biochemical", "conditions": "FIG. 4D", "protocol": "as §2, §3, §1"}, "[12]": {"target": "zinc-responsive transcription factor smtB (Synechococcus elongatus, UniProt P30340)", "sequence (P30340 whole entry)": "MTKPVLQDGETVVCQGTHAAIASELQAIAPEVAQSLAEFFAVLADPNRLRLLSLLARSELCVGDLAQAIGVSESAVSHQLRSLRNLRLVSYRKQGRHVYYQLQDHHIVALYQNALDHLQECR", "experiment": "biochemical", "protocol": "In other exemplary methods, reactions with allosteric transcription factors (aTFs), ROSALIND reagent buffer (10× buffer containing, for assays contemplated herein, but not limited to: 400 mM Tris-HCl, pH 8.0, 200 mM NaCl, 20 mM spermidine, 100 mM DTT and 80 mM MgCl2) were used. The buffer was prepared fresh or stored as single-use aliquots at −80° C. […] The final concentration of the aTF monomers was either 2.5 μM tetR or 10 μM smtB. The master mix was incubated for 15 minutes at 37° C. which allows the aTFs to bind to the operator sequence.\nIn another exemplary method, bacterial transcription can be regulated by allosteric transcription factors (aTFs), such as activators or repressors, which have previously been used for small molecule detection. Another system (“ROSALIND”) enabled rapid detection of compounds via aTFs. […] The ROSALIND buffer system differs from the SPRINT or SHERLOCK buffer. Therefore, it was tested whether aTF-based ROSALIND reactions could be integrated with the Cas13a-based detection method. To simplify the system, the inorganic pyrophosphatase (IPPase) enzyme was first removed from the ROSALIND system. IPPase was used in transcription reactions to degrade pyrophosphate which was a reaction product of the RNA polymerase and can inhibit the reaction. […] Adaptions included reducing the concentrations of rNTP from 2.85 mM to 40 μM, DNA template from 25 to 15 nM, and T7 RNAP from 10 to 6.7 ng/μL.\nThe responses of the de-repressors tetR and smtB were measured with SPRINT."}}, "data": [{"smiles": "N[C@@H](Cc1c[nH]c2ccc(O)cc12)C(=O)O", "note": "[5-hydroxytryptophan]", "values": [{"measurement": "inhibitory effect on transcription and Cas13 reaction", "setting": "[1]", "result": "did not cause inhibitory effects"}]}, {"smiles": "Nc1nc2c(c(=O)[nH]1)CC=N2", "note": "[7-deazaguanine]", "values": [{"measurement": "transcriptional response at low and high concentration", "setting": "[2]", "result": "some activation of transcription at low concentrations but no or reduced activation at high concentrations"}, {"measurement": "interference with SPRINT assay (PAINS)", "setting": "[3]", "result": "interfering compounds"}]}, {"smiles": "Cc1cc2nc3c(=O)[nH]c(=O)nc-3n(C[C@H](O)[C@H](O)[C@H](O)COP(=O)(O)O)c2cc1C", "note": "[FMN, flavin mononucleotide]", "values": [{"measurement": "EC50", "setting": "[4]; read-out: T50 value (ligand concentration at half-maximal activation of transcription)", "result": "~1010", "unit": "nM"}]}, {"smiles": "O=c1[nH]cnc2c([C@@H]3N[C@H](CO)[C@@H](O)[C@H]3O)c[nH]c12", "note": "[Immucillin-H]", "values": [{"measurement": "effect on hPNP enzymatic activity", "setting": "[5]; inhibitor at 100-fold lower concentration than substrate inosine, FIG. 9E", "result": "significant reduction in the enzymatic activity"}]}, {"smiles": "CNc1nc2nc[nH]c2c(=O)[nH]1", "note": "[N2-methylguanine]", "values": [{"measurement": "transcriptional response at low and high concentration", "setting": "[2]", "result": "only caused a strong transcriptional response at high concentrations"}, {"measurement": "interference with SPRINT assay (PAINS)", "setting": "[3]", "result": "interfering compounds"}]}, {"smiles": "CNc1ncnc2nc[nH]c12", "note": "[N6-methyladenine]", "values": [{"measurement": "transcriptional response at low and high concentration", "setting": "[2]", "result": "did not cause a transcriptional response at low or high concentrations"}]}, {"smiles": "C[S+](CC[C@H](N)C(=O)O)C[C@H]1O[C@@H](n2cnc3c(N)ncnc32)[C@H](O)[C@@H]1O", "note": "(some centres unmarked) [SAM, S-adenosylmethionine]", "values": [{"measurement": "EC50", "setting": "[6]", "result": "~1000", "unit": "nM"}, {"measurement": "response of SAM riboswitch to ligand", "setting": "[7]", "result": "responsive"}]}, {"smiles": "Nc1ncnc2nc[nH]c12", "note": "[adenine]", "values": [{"measurement": "response of adenine riboswitch to ligand", "setting": "[8]", "result": "responded efficiently"}]}, {"smiles": "Cc1cc2nc3c(=O)[nH]c(=O)nc-3n(C[C@H](O)[C@H](O)[C@H](O)COP(=O)(O)OP(=O)(O)OC[C@H]3O[C@@H](n4cnc5c(N)ncnc54)[C@H](O)[C@@H]3O)c2cc1C", "note": "[flavin adenine dinucleotide (FAD), flavin adenine dinucleotide]", "values": [{"measurement": "response / activation of FMN riboswitch", "setting": "[4]", "result": "low-affinity response"}]}, {"smiles": "Nc1nc2nc[nH]c2c(=O)[nH]1", "note": "[guanine]", "values": [{"measurement": "transcriptional response at low and high concentration", "setting": "[2]", "result": "equally strong transcriptional activation at low and high concentrations"}, {"measurement": "response of adenine riboswitch to ligand", "setting": "[8]", "result": "not"}]}, {"smiles": "OC[C@H]1O[C@@H](n2cnc3c(O)ncnc32)[C@H](O)[C@@H]1O", "note": "[inosine]", "values": [{"measurement": "hypoxanthine production by hPNP on titration", "setting": "[5]; FIG. 9F", "result": "concentration-dependent increase"}]}, {"smiles": "O=c1cc(-c2cccs2)nc([C@H]2CCCN(Cc3cn(-c4ncccn4)cn3)C2)[nH]1", "note": "[ribocil-C]", "values": [{"measurement": "agonism of FMN riboswitch ribB", "setting": "[9]", "result": "strong agonist"}, {"measurement": "response / activation of FMN riboswitch", "setting": "[4]", "result": "no observable activation"}, {"measurement": "agonism of FMN riboswitch from F. nucleatum", "setting": "[10]", "result": "strong agonist"}]}, {"smiles": "NCCc1c[nH]c2ccc(O)cc12", "note": "[serotonin, 5-hydroxytryptamine]", "values": [{"measurement": "EC50", "setting": "[11]; read-out: T50 value", "result": "5000 ± 3000", "unit": "nM"}, {"measurement": "inhibitory effect on transcription and Cas13 reaction", "setting": "[1]", "result": "specifically inhibited the transcription and also Cas13 reaction"}]}, {"smiles": "NCCc1c[nH]c2ccccc12", "note": "[tryptamine]", "values": [{"measurement": "discrimination by serotonin riboswitch", "setting": "[11]", "result": "discriminated specifically against"}]}, {"smiles": "[Zn+2]", "note": "[zinc]", "values": [{"measurement": "EC50", "setting": "[12]", "result": "4800 ± 300", "unit": "nM"}, {"measurement": "selectivity versus control copper", "setting": "[12]; FIG. 7C", "result": "high selectivity"}]}]}
